Patent publication US20260356819A1, “OXOISOINDOLINYL-SUBSTITUTED […] DERIVATIVE AND USE THEREOF” (GLUETACS THERAPEUTICS (SHANGHAI) CO., LTD., priority 2023, published 2026)

Experiments:
Assay type in all cases: cell-based
Conditions in all cases: compounds at 50 nM and 500 nM
CK1α = target: T1, CK1α (Homo sapiens, UniProt P48729+Q96SW2); assay: Western blot degradation of CK1α in hPBMCs (24 h)
T1 construct: The supernatant was aspirated as the extracted total cell protein; endogenous in cells; host or cells: human peripheral blood mononuclear cells (hPBMCs)
T1 sequence (P48729 whole entry): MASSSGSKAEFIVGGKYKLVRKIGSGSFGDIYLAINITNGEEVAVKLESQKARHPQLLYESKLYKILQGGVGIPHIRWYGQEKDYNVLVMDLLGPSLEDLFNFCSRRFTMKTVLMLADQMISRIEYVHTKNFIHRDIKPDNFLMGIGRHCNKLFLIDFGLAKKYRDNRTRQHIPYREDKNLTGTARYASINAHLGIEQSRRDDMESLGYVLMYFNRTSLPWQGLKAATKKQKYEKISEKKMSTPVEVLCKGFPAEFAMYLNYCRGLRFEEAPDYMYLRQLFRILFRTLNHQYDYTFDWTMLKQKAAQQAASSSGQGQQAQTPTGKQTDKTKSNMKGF
T1 sequence (Q96SW2 whole entry): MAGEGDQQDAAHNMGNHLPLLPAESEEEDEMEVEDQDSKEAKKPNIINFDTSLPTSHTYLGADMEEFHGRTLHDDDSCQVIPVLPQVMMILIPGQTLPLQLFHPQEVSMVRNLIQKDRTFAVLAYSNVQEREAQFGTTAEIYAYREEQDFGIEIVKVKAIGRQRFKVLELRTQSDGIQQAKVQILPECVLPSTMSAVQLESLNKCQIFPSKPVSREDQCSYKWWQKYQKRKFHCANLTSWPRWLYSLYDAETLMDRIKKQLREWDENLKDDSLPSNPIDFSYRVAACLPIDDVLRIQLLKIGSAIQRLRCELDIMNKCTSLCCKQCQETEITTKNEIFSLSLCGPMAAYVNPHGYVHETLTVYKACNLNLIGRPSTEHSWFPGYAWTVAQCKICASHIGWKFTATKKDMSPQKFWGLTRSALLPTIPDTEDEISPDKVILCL
T1 sequence (Q16531 whole entry partner): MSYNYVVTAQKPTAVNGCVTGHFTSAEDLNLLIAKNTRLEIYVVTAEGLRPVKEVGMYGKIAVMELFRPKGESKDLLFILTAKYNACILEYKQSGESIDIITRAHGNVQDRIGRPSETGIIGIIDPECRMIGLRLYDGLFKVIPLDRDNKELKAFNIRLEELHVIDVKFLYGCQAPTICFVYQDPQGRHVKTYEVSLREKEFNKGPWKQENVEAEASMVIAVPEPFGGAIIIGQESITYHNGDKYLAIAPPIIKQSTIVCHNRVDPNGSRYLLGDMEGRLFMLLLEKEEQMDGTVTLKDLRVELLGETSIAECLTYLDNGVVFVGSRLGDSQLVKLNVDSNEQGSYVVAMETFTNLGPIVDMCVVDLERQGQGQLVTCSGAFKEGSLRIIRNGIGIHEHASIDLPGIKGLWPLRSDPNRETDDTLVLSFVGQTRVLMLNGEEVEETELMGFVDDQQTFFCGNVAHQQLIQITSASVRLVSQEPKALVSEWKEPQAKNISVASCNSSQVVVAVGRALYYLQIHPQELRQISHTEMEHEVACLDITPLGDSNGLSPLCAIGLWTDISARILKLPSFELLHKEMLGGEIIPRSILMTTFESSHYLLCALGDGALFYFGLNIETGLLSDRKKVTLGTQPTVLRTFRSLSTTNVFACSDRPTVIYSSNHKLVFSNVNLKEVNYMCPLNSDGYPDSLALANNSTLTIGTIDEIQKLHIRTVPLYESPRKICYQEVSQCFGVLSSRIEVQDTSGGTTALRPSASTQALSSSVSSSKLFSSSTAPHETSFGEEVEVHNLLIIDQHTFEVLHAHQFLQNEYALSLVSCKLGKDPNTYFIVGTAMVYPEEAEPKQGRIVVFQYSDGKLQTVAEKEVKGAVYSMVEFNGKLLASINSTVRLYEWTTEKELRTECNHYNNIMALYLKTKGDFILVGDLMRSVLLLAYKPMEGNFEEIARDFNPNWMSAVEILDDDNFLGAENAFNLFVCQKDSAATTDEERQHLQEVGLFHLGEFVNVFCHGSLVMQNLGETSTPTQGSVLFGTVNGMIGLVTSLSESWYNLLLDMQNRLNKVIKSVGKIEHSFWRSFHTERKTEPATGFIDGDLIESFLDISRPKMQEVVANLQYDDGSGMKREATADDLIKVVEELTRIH
Method: (§1) Conventional Western blot assay was performed to evaluate the effects of the compounds of the present disclosure on the expression of target proteins in cells. • (1) Cell Seeding and Protein Harvesting: Human peripheral blood mononuclear cells (hPBMCs) at a density of 1×10^6 cells/mL were thawed according to the PBMC Recovery Protocol (Milecell Biotechnologies Inc, Shanghai). The cells were then treated with the compounds of the present disclosure (including the compounds listed in Table 1, and the Examples 1-498 compounds) at concentrations of 50 nM and 500 nM. Controls included a negative control (DMSO) and a positive control (the commercial immunomodulatory drug lenalidomide), both processed following the identical experimental protocol as the compounds of the present disclosure. After 24 hours of compounds treatment, cells were harvested and lysed in RIPA protein lysate containing protease inhibitors on ice for 30 min, followed by centrifugation. The supernatant was aspirated as the extracted total cell protein. The protein concentration of the supernatant was determined using the conventional BCA (Bicinchoninic Acid) assay. • (2) To the collected supernatant, 5×SDS sample loading buffer was added, followed by denaturation at 95 °C for 5 minutes. The denatured samples were then separated by SDS-PAGE electrophoresis on a polyacrylamide gel. Proteins were transferred to a nitrocellulose membrane (0.45 μm NC membrane), blocked with blocking buffer at room temperature for 1 hour, and subjected to antibody incubation and development procedures according to the antibody manufacturer's instructions (Cell Signaling Technology).
(§2) Half-Maximal Degradation Concentration value (the drug concentration required for degrading proteins by 50%, abbreviated as DC50) reads method: comparing the grayscale values of Western blot bands from drug-treated samples with those from blank DMSO-treated controls, and identifying the drug concentration range at which the grayscale value is half that of the DMSO-treated control bands.
(§3) DC50 values can be calculated using ImageJ software to measure grayscale values of Western blot bands from drug-treated samples. The concentration-response curve is fitted to estimate the drug concentration corresponding to half the grayscale value.
(§4) Target protein remaining (%) refers to the percentage of target protein remaining in cells after treatment with protein degrader compounds.
(§5) Calculation method for target protein remaining (%): Use ImageJ software to measure grayscale values of Western blot bands from drug (protein degrader)-treated samples. The grayscale value of drug-treated bands is divided by that of internal control protein bands, and the resulting quotient is normalized to obtain the relative percentage of remaining target protein after protein degrader treatment.
(§6) Target protein degradation rate (%)=1−target protein remaining (%).

IKZF3 = target: T2, IKZF3 (Homo sapiens, UniProt Q96SW2+Q9UKT9); assay: Western blot degradation of IKZF3 in hPBMCs (24 h)
T2 construct: The supernatant was aspirated as the extracted total cell protein; endogenous in cells; host or cells: human peripheral blood mononuclear cells (hPBMCs)
T2 sequence (Q9UKT9 whole entry): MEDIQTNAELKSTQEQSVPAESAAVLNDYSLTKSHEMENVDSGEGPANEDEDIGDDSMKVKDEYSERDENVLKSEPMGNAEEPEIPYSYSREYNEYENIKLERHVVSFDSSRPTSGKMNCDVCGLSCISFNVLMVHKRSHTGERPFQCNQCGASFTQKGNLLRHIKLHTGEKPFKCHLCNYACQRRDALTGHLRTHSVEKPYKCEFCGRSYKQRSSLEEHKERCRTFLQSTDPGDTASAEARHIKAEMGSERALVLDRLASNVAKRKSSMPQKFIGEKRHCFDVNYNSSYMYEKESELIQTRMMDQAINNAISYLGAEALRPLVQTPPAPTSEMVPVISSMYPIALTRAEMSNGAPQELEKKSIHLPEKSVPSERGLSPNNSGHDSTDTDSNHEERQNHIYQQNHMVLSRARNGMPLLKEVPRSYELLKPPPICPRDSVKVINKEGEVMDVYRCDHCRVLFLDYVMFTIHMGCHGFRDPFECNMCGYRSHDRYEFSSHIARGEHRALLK
T2 sequence (Q96SW2 whole entry): as the sequence (Q96SW2 whole entry) above
T2 sequence (Q16531 whole entry partner): as the sequence (Q16531 whole entry partner) above
Method: as §1, §2, §3, §4, §5, §6

IKZF1 = target: T3, IKZF1 (Homo sapiens, UniProt Q13422+Q96SW2); assay: Western blot degradation of IKZF1 in hPBMCs (24 h)
T3 construct: The supernatant was aspirated as the extracted total cell protein; endogenous in cells; host or cells: human peripheral blood mononuclear cells (hPBMCs)
T3 sequence (Q13422 whole entry): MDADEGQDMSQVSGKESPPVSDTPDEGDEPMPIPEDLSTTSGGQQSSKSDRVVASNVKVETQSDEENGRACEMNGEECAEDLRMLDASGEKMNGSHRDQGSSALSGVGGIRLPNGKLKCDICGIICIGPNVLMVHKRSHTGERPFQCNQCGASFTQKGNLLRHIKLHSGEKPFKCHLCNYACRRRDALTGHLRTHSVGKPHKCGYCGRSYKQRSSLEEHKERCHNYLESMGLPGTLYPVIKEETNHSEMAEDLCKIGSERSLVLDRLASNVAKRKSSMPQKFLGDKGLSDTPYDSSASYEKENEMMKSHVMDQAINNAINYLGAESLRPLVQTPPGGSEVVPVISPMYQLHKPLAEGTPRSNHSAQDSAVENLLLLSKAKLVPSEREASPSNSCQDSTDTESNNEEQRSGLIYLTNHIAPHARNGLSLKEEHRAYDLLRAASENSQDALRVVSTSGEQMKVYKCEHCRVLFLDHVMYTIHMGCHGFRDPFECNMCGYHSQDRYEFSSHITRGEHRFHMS
T3 sequence (Q96SW2 whole entry): as the sequence (Q96SW2 whole entry) above
T3 sequence (Q16531 whole entry partner): as the sequence (Q16531 whole entry partner) above
Method: as §1, §2, §3, §4, §5, §6

IKZF2 = target: T4, IKZF2 (Homo sapiens, UniProt Q96SW2+Q9UKS7); assay: Western blot degradation of IKZF2 in hPBMCs (24 h)
T4 construct: The supernatant was aspirated as the extracted total cell protein; endogenous in cells; host or cells: human peripheral blood mononuclear cells (hPBMCs)
T4 sequence (Q9UKS7 whole entry): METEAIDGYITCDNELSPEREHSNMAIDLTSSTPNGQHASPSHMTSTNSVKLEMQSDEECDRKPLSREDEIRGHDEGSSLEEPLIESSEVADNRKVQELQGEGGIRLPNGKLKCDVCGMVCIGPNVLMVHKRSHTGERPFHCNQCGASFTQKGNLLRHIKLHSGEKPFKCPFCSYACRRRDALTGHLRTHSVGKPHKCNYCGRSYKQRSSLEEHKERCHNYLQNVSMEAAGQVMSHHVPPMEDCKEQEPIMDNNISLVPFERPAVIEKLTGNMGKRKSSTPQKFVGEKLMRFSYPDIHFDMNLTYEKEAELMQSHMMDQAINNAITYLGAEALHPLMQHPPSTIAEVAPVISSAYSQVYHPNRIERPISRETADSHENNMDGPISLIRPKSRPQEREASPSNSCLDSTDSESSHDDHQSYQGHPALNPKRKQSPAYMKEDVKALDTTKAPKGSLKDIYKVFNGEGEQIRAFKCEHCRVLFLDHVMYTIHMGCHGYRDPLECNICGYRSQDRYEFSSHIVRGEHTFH
T4 sequence (Q96SW2 whole entry): as the sequence (Q96SW2 whole entry) above
T4 sequence (Q16531 whole entry partner): as the sequence (Q16531 whole entry partner) above
Method: as §1, §2, §3, §4, §5, §6

GSPT1 = target: T5, GSPT1 (Homo sapiens, UniProt P15170+Q96SW2); assay: Western blot degradation of GSPT1 in hPBMCs (24 h)
T5 construct: The supernatant was aspirated as the extracted total cell protein; endogenous in cells; host or cells: human peripheral blood mononuclear cells (hPBMCs)
T5 sequence (P15170 whole entry): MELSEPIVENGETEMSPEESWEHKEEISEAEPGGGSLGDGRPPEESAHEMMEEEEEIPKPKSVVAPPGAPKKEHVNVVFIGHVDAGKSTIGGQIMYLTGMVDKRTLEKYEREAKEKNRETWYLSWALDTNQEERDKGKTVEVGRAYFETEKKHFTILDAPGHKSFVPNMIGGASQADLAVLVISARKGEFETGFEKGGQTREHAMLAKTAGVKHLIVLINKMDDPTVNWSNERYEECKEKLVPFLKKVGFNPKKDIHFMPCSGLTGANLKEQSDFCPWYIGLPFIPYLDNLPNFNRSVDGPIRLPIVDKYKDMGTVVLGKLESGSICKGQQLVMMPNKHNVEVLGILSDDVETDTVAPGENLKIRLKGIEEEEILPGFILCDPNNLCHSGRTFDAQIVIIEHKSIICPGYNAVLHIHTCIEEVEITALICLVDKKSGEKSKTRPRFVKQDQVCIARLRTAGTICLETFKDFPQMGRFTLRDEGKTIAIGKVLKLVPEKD
T5 sequence (Q96SW2 whole entry): as the sequence (Q96SW2 whole entry) above
T5 sequence (Q16531 whole entry partner): as the sequence (Q16531 whole entry partner) above
Method: as §1, §2, §3, §4, §5, §6

SMILES | CK1α substrate protein remaining % (CK1α) | IKZF3 substrate protein remaining % (IKZF3) | IKZF1 substrate protein remaining % (IKZF1) | IKZF2 substrate protein remaining % (IKZF2) | GSPT1 substrate protein remaining % (GSPT1)
O=C1CCN(N2Cc3cc(CN4CCN(c5ncccc5C(F)(F)F)CC4)ccc3C2=O)C(=O)N1 [GT-05174, 1-(1-oxo-5-((4-(3-(trifluoromethyl)pyridin-2-yl)piperazin-1-yl)methyl)isoindolin-2-yl)dihydropyrimidine-2,4(1H,3H)-dione] | B (80%< substrate protein remaining % ≤100%) | B (80%< substrate protein remaining % ≤100%) | B (80%< substrate protein remaining % ≤100%) |  | 
O=C1CCN(N2Cc3cc(CN4CCN(c5ccc(C(F)(F)F)cn5)CC4)ccc3C2=O)C(=O)N1 [GT-05176, 1-(1-oxo-5-((4-(5-(trifluoromethyl)pyridin-2-yl)piperazin-1-yl)methyl)isoindolin-2-yl)dihydropyrimidine-2,4(1H,3H)-dione] | B (80%< substrate protein remaining % ≤100%) |  | B (80%< substrate protein remaining % ≤100%) | B (80%< substrate protein remaining % ≤100%) | 
O=C1CCN(N2C(=O)c3ccc(CN4CCN(c5ccccn5)CC4)cc3C2=O)C(=O)N1 [GT-05351, 2-(2,4-dioxotetrahydropyrimidin-1(2H)-yl)-5-((4-(pyridin-2-yl)piperazin-1-yl)methyl)isoindoline-1,3-dione] | B (80%< substrate protein remaining % ≤100%) | B (80%< substrate protein remaining % ≤100%) | B (80%< substrate protein remaining % ≤100%) | A (0% ≤ substrate protein remaining % ≤80%) | 
O=C1CCN(N2C(=O)c3ccc(CN4CCN(c5cc(Cl)ccn5)CC4)cc3C2=O)C(=O)N1 [GT-05354, 5-((4-(4-chloropyridin-2-yl)piperazin-1-yl)methyl)-2-(2,4-dioxotetrahydropyrimidin-1(2H)-yl)isoindoline-1,3-dione] | B (80%< substrate protein remaining % ≤100%) |  | B (80%< substrate protein remaining % ≤100%) |  | A (0% ≤ substrate protein remaining % ≤80%)
O=C1CCN(N2Cc3cc(CN4CCN(c5ncc(Cl)cc5Cl)CC4)ccc3C2=O)C(=O)N1 [GT-05356, 1-(5-((4-(3,5-dichloropyridin-2-yl)piperazin-1-yl)methyl)-1-oxoisoindolin-2-yl)dihydropyrimidine-2,4(1H,3H)-dione] | B (80%< substrate protein remaining % ≤100%) | B (80%< substrate protein remaining % ≤100%) | B (80%< substrate protein remaining % ≤100%) |  | 
O=C1CCN(N2Cc3cc(CN4CCN(c5nccc(F)c5F)CC4)ccc3C2=O)C(=O)N1 [GT-05357, 1-(5-((4-(3,4-difluoropyridin-2-yl)piperazin-1-yl)methyl)-1-oxoisoindolin-2-yl)dihydropyrimidine-2,4(1H,3H)-dione] | B (80%< substrate protein remaining % ≤100%) | B (80%< substrate protein remaining % ≤100%) | B (80%< substrate protein remaining % ≤100%) | B (80%< substrate protein remaining % ≤100%) | 
O=C1CCN(N2Cc3cc(CN4CCN(c5nccc(I)c5F)CC4)ccc3C2=O)C(=O)N1 [GT-05406, 1-(5-((4-(3-fluoro-4-iodopyridin-2-yl)piperazin-1-yl)methyl)-1-oxoisoindolin-2-yl)dihydropyrimidine-2,4(1H,3H)-dione] | B (80%< substrate protein remaining % ≤100%) | B (80%< substrate protein remaining % ≤100%) | B (80%< substrate protein remaining % ≤100%) |  | A (0% ≤ substrate protein remaining % ≤80%)
